Reference: patent US20100041760A1, “MONOARYL AMINOTETRALINES” (priority 2008, published 2010)

Key:
[1] = molecular target: T1, thromboxane A2 receptor (TP) (Homo sapiens, UniProt P21731); assay: Human Thromboxane A2 Receptor Binding Assay; conditions: human platelets; 10 nM [3H]SQ29548; 1 hour, room temperature
T1 construct: using human platelets as the source of the receptor; from tissue; host or cells: human platelets (whole platelets, 5x10^7 per well)
T1 sequence (P21731 1-343): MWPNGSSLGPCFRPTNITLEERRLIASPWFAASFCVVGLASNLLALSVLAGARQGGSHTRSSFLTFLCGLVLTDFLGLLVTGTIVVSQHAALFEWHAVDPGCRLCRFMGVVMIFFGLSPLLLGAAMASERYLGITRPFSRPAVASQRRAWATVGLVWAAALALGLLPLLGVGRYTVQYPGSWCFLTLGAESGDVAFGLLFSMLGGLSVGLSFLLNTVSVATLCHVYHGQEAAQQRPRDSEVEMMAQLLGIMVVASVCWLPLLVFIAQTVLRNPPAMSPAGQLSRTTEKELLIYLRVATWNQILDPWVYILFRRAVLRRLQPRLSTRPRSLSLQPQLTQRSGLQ
From the text: The thromboxane A2 receptor (TP) plays a key role in hemostasis as its abnormality leads to bleeding disorders. To avoid the potential liability of bleeding disorders, the binding activity of certain compounds of the present invention against TP was monitored by a receptor binding assay using human platelets as the source of the receptor and [^3H]SQ29548 (generically named (5Z)-[5,6-^3H]-7-[(1S,2R,3R,4R)-3-[[2-[(phenylamino)carbonyl]hydrazinyl]methyl]-7-oxabicyclo[2.2.1]hept-2-yl]-5-heptenoic acid, from PerkinElmer Inc.) as the competing radioactive ligand.
The TP binding reactions (0.2 mL) were performed in 96-well plates at room temperature in PBS containing 5×10^7 platelets, 10 mM MgCl2, 0.06% BSA, 10 nM [^3H]SQ29548, and the test compound at various concentrations. After 1 hour of binding reactions, the platelets were harvested on GF/B filter plates (as previously described from PerkinElmer Inc.) and washed 5 times with PBS using a Filtermate™ Harvester (as previously described from PerkinElmer Inc.). The radioactivities bound to the platelets were determined using a microplate scintillation counter (TopCount® NXT, from PerkinElmer Inc.) after adding 50 μL of Microscint™ 20 scintillation fluid (from PerkinElmer Inc.) to each well of the filter plates. The radioactivity from non-specific binding was determined by replacing the compound with 10 μM of ramatroban (BAY-u3405, from Cayman Chemical Company) in the reaction mixtures. The radioactivity bound to the platelets in the absence of compound (total binding) was determined by replacing the compound with 0.25% of DMSO in the reaction mixture. Specific binding data were obtained by subtracting the radioactivity of non-specific binding from each binding data.
(§1) The IC50 value is defined as the concentration of the tested compound that is required for 50% inhibition of total specific binding. In order to calculate the IC50 value, the percent inhibition data were determined for 7 concentrations for each compound. The percent inhibition for a compound at each concentration was calculated according to the following formula, [1−(specific binding in the presence of compound)/(total specific binding)]×100. The IC50 value was then obtained by fitting the percent inhibition data to a sigmoidal dose-response (4 parameter logistic) model in the XLfit® software Excel add-in program [from ID Business Solutions Ltd., model 205, where F(x)=(A+(B−A)/(1+((C/x)̂D)))].

human CRTH2 = molecular target: T2, human CRTH2 (Homo sapiens, UniProt Q9Y5Y4); assay: Human CRTH2 Receptor Binding Assay (whole cell, [3H]ramatroban competition); set-up: expressed in transfected cells; host or cells: CHO-K1 (co-transfected with G-alpha16); conditions: CHO-K1 cells expressing human CRTH2 and G-alpha16; 20 nM [3H]ramatroban; 1 hour, room temperature
T2 sequence (Q9Y5Y4 1-395): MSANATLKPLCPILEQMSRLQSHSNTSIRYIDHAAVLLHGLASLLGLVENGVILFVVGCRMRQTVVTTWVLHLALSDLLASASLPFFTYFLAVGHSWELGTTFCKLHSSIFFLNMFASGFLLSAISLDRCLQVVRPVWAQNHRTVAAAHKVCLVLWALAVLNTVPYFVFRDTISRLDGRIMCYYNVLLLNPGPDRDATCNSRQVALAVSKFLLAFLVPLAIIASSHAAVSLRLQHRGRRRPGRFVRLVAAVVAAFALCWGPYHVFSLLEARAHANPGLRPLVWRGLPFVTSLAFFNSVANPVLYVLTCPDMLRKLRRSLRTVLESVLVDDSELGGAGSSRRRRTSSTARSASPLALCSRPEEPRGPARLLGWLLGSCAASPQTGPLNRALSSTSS
From the text: A whole cell receptor binding assay using [^3H]ramatroban as the competing radioactive ligand was employed to evaluate the compound binding activity to human CRTH2. The radioactive ligand [^3H]ramatroban was synthesized according to Sugimoto et. al. (Eur. J. Pharmacol. 524, 30-37, 2005) to a specific activity of 42 Ci/mmol.
A cell line stably expressing human CRTH2 was established by transfecting CHO-K1 cells with two mammalian expression vectors that harbored human CRTH2 and G-alpha16 cDNAs, respectively, using FuGene® 6 transfection reagent (from Roche). Stable clones expressing CRTH2 were selected by staining each clone with BM16 (BD Pharmingen™ from BD Biosciences, a division of Becton, Dickinson and Company), which is a rat monoclonal antibody to human CRTH2. The cells were maintained as monolayer cultures in Ham's F-12 medium containing 10% fetal bovine serum, 100 units/mL penicillin, 100 μg/mL streptomycin, 2 mM glutamine, 0.5 mg/mL G418 (geneticin) for CRTH2, and 0.2 mg/mL hygromycin-B (for G-alpha 16). For whole cell receptor binding assay, the monolayer cells were rinsed once with PBS (phosphate buffered saline), dissociated using ethylenediaminetetraacetate (Versene™ EDTA from Lonza Inc.), and suspended in PBS containing 10 mM MgCl2 and 0.06% BSA (bovine serum albumin) at 1.5×10^6 cells/mL.
The binding reactions (0.2 mL) were performed in 96-well plates at room temperature in PBS containing 1.5×10^5 cells, 10 mM MgCl2, 0.06% BSA, 20 nM [^3H]ramatroban, and test compound at various concentrations. After 1 hour of binding reactions, the cells were harvested on GF™/B filter microplates (microtiter plates with embedded glass fiber from PerkinElmer, Inc.) and washed 5 times with PBS using a Filtermate™ Harvester (a cell harvester that harvests and washes cells from microplates from PerkinElmer, Inc.). The radioactivities bound to the cells were determined using a microplate scintillation counter (TopCount® NXT, from PerkinElmer, Inc.) after adding 50 μL of Microscint™ 20 scintillation fluid (from PerkinElmer, Inc.) to each well of the filter plates. The radioactivity from non-specific binding was determined by replacing compound with 10 μM of 15(R)-15-methyl PGD2 (from Cayman Chemical Company) in the reaction mixtures. The radioactivity bound to the cells in the absence of compound (total binding) was determined by replacing compound with 0.25% of DMSO (dimethyl sulfoxide) in the reaction mixture. Specific binding data were obtained by subtracting the radioactivity of non-specific binding from each binding data.
as §1

| Compound | IC50 [1] | IC50 (human CRTH2) |
| --- | --- | --- |
| COc1cc(C(F)(F)F)cc(S(=O)(=O)N[C@@H]2CCCc3c(OCC(=O)O)cccc32)c1 [Example 10-10, [(R)-5-(3-methoxy-5-trifluoromethyl-benzenesulfonylamino)-5,6,7,8-tetrahydro-naphthalen-1-yloxy]-acetic acid] | > 10000 nM | 18 nM |
| O=C(O)COc1cccc2c1CCC[C@H]2NS(=O)(=O)c1cc(Br)cc(C(F)(F)F)c1 [Example 10-11, [(R)-5-(3-bromo-5-trifluoromethyl-benzenesulfonylamino)-5,6,7,8-tetrahydro-naphthalen-1-yloxy]-acetic acid] | > 10000 nM | 9 nM |
| CN([C@@H]1CCCc2c(OCC(=O)O)cccc21)S(=O)(=O)c1cc(N2CCCC2)cc(C(F)(F)F)c1 [Example 4-1, {(R)-5-[methyl-(3-pyrrolidin-1-yl-5-trifluoromethyl-benzenesulfonyl)-amino]-5,6,7,8-tetrahydro-naphthalen-1-yloxy}-acetic acid] | > 10000 nM | 127 nM |
| CN([C@@H]1CCCc2c(OCC(=O)O)cccc21)S(=O)(=O)c1cc(C(C)(C)C)cc(C(C)(C)C)c1 [Example 1-2, {(R)-5-[(3,5-di-tert-butyl-benzenesulfonyl)-methyl-amino]-5,6,7,8-tetrahydro-naphthalen-1-yloxy}-acetic acid] | > 10000 nM | 177 nM |
| CS(=O)(=O)c1cc(S(C)(=O)=O)cc(S(=O)(=O)N[C@@H]2CCCc3c(OCC(=O)O)cccc32)c1 [Example 10-9, [(R)-5-(3,5-bis-methanesulfonyl-benzenesulfonylamino)-5,6,7,8-tetrahydro-naphthalen-1-yloxy]-acetic acid] | > 10000 nM | 9 nM |
| CN([C@@H]1CCCc2c(OCC(=O)O)cccc21)S(=O)(=O)c1cc(S(C)(=O)=O)cc(S(C)(=O)=O)c1 [Example 1-3, {(R)-5-[(3,5-bis-methanesulfonyl-benzenesulfonyl)-methyl-amino]-5,6,7,8-tetrahydro-naphthalen-1-yloxy}-acetic acid] | > 10000 nM | 15.7 nM |
| CN([C@@H]1CCCc2c(OCC(=O)O)cccc21)S(=O)(=O)c1cc(C(F)(F)F)cc(C(F)(F)F)c1 [Example 1-6, {(R)-5-[(3,5-bis-trifluoromethyl-benzenesulfonyl)-methyl-amino]-5,6,7,8-tetrahydro-naphthalen-1-yloxy}-acetic acid] | > 10000 nM | 18.3 nM |
| O=C(O)COc1cccc2c1CCC[C@H]2NS(=O)(=O)c1cc(C(F)(F)F)cc(C(F)(F)F)c1 [Example 10-3, [(R)-5-(3,5-bis-trifluoromethyl-benzenesulfonylamino)-5,6,7,8-tetrahydro-naphthalen-1-yloxy]-acetic acid] | > 10000 nM | 6.3 nM |
| CN([C@@H]1CCCc2c(OCC(=O)O)cccc21)S(=O)(=O)c1cc(C(F)(F)F)cc(S(=O)(=O)C2CCCC2)c1 [Example 3-1, {(R)-5-[(3-cyclopentanesulfonyl-5-trifluoromethyl-benzenesulfonyl)-methyl-amino]-5,6,7,8-tetrahydro-naphthalen-1-yloxy}-acetic acid] | > 10000 nM | 2.9 nM |
| CN([C@@H]1CCCc2c(OCC(=O)O)cccc21)S(=O)(=O)c1cc(C(C)(F)F)cc(C(F)(F)F)c1 [Example 5-1, ((R)-5-{[3-(1,1-difluoro-ethyl)-5-trifluoromethyl-benzenesulfonyl]-methyl-amino}-5,6,7,8-tetrahydro-naphthalen-1-yloxy)-acetic acid] | > 10000 nM | 16.5 nM |

The next lines start with the values.

| IC50 [1] | IC50 (human CRTH2) | Compound |
| --- | --- | --- |
| > 10000 nM | 6.8 nM | CC(C)[S+]([O-])c1cc(C(F)(F)F)cc(S(=O)(=O)N(C)[C@@H]2CCCc3c(OCC(=O)O)cccc32)c1 (stereo partly drawn) [Example 2-1, ((R)-5-{methyl-[3-(propane-2-sulfinyl)-5-trifluoromethyl-benzenesulfonyl]-amino}-5,6,7,8-tetrahydro-naphthalen-1-yloxy)-acetic acid] |
| > 10000 nM | 3.6 nM | CC(C)S(=O)(=O)c1cc(C(F)(F)F)cc(S(=O)(=O)N(C)[C@@H]2CCCc3c(OCC(=O)O)cccc32)c1 [Example 3-2, ((R)-5-{methyl-[3-(propane-2-sulfonyl)-5-trifluoromethyl-benzenesulfonyl]-amino}-5,6,7,8-tetrahydro-naphthalen-1-yloxy)-acetic acid] |
| > 10000 nM | 91.2 nM | CC(C)c1cc(C(F)(F)F)cc(S(=O)(=O)N(C)[C@@H]2CCCc3c(OCC(=O)O)cccc32)c1 [Example 8-1, {(R)-5-[(3-isopropyl-5-trifluoromethyl-benzenesulfonyl)-methyl-amino]-5,6,7,8-tetrahydro-naphthalen-1-yloxy}-acetic acid] |
| > 10000 nM | 410 nM | CC(C)N(C)c1cc(C(F)(F)F)cc(S(=O)(=O)N(C)[C@@H]2CCCc3c(OCC(=O)O)cccc32)c1 [Example 4-3, ((R)-5-{[3-(isopropyl-methyl-amino)-5-trifluoromethyl-benzenesulfonyl]-methyl-amino}-5,6,7,8-tetrahydro-naphthalen-1-yloxy)-acetic acid] |
| > 10000 nM | 110 nM | COc1cc(C(F)(F)F)cc(S(=O)(=O)N(C)[C@@H]2CCCc3c(OCC(=O)O)cccc32)c1 [Example 1-4, {(R)-5-[(3-methoxy-5-trifluoromethyl-benzenesulfonyl)-methyl-amino]-5,6,7,8-tetrahydro-naphthalen-1-yloxy}-acetic acid] |
